Holding throughout (assay type): in vivo
For experiment [1], the system named is larvae of the southern green stink bug (Nezara viridula). Description: Nezara viridula spray test. The note with it: 96 h, after 4 days, barley plants; for mortality at 100 g/ha: application rate 100 g/ha; for mortality at 500 g/ha: application rate 500 g/ha, read-out: activity (mortality). The protocol: Nezara viridula—Spray Test
To produce a suitable preparation of active compound, 1 part by weight of active compound is mixed with the stated amount of solvent, and the concentrate is diluted with water, containing an emulsifier concentration of 1000 ppm, to the desired concentration. Further test concentrations are prepared by dilution with emulsifier containing water.
Barley plants (Hordeum vulgare) are sprayed with a test solution containing the desired concentration of the active ingredient and are infested with larvae of the southern green stink bug (Nezara viridula).
After 4 days mortality in % is determined. 100% means all the stink bugs have been killed; 0% means none of the stink bugs have been killed.

In experiment [2] the test system is fall armyworm larvae (Spodoptera frugiperda). Briefly: Spodoptera frugiperda spray test. Conditions: 168 h, application rate 100 g/ha, after 7 days, maize leaf sections. The procedure, abridged:
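Maize leaf sections sprayed with compound diluted in water with 1000 ppm emulsifier, then infested with larvae once dry. Mortality (%) scored after 7 days; 100% = all caterpillars killed.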

Experiment [3] relates to larvae of the banded cucumber beetle (Diabrotica balteata). Description: Diabrotica balteata spray test. Conditions: 168 h, application rate 100 g/ha (=32 μg/well), after 7 days, wheat seeds, read-out: activity (efficacy: seedlings grown). The procedure, abridged: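 Wheat seeds germinated 1 day on agar were sprayed with compound diluted in water with 1000 ppm emulsifier, then infested with 10-20 Diabrotica balteata larvae. Efficacy in % scored after 7 days: 100% = seedlings grown as untreated, uninfected control; 0% = no seedlings grown.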

Experiment [4] deals with adult brown dog ticks (Rhipicephalus sanguineus). Description: Rhipicephalus sanguineus in-vitro contact test, adult brown dog ticks. Conditions: application rate 5 μg/cm^2 (=500 g/ha), after 48 hours, read-out: activity (efficacy: ticks dead or moribund). How it is done: Rhipicephalus sanguineus—In-Vitro Contact Tests with Adult Brown Dog Ticks
(§1) 9 mg compound is solved in 1 mL acetone and diluted with acetone to the desired concentration. 250 μL of the test solution is filled in 25 mL glass test tubes and homogeneously distributed on the inner walls by rotation and tilting on a shaking device (2 h at 30 rpm). With a compound concentration of 900 ppm, an inner surface of 44.7 cm^2 and a homogeneous distribution, a dose of 5 μg/cm^2 is achieved.
After the solvent has evaporated, each test tube is filled with 5-10 adult brown dog ticks (Rhipicephalus sanguineus), closed with a perforated lid and incubated in a lying position at room temperature and relative humidity. After 48 hours efficacy is determined. The ticks are patted on the ground of the tubes and are incubated on a heating plate at 45-50° C. for at most 5 minutes. Immotile or uncoordinated moving ticks, which are not able to escape the heat by climbing upwards, are marked as dead or moribund.
An efficacy of 100% means all ticks are dead or moribund; 0% means no ticks are dead or moribund.

The subject of experiment [5] is adult cat fleas (Ctenocephalides felis). Briefly: Ctenocephalides felis in-vitro contact test, adult cat flea. Conditions: application rate 5 μg/cm^2 (=500 g/ha), after 48 hours, read-out: activity (efficacy: fleas dead or moribund). The protocol:
Ctenocephalides felis—In-Vitro Contact Tests Adult Cat Flea
as §1
After the solvent has evaporated, each test tube is filled with 5-10 adult cat fleas (Ctenocephalides felis), closed with a perforated lid and incubated in a lying position at room temperature and relative humidity. After 48 hours efficacy is determined. The fleas are patted on the ground of the tubes and are incubated on a heating plate at 45-50° C. for at most 5 minutes. Immotile or uncoordinated moving fleas, which are not able to escape the heat by climbing upwards, are marked as dead or moribund.
An efficacy of 100% means all fleas are dead or moribund; 0% means no fleas are dead or moribund.

Experiment [6] has as its system green peach aphid (Myzus persicae). Briefly: Myzus persicae oral test. Conditions: 120 h, read-out: activity (mortality). Put shortly:
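Oral uptake format: water-diluted acetone concentrate of compound is blended into IPL41 medium carrying 33%+15% sugar and offered under a parafilm membrane. Percentage of dead insects is recorded after 5 days.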

Experiment [7] has the same test system. Briefly: Myzus persicae spray test. The note with it: foliar, 120 h, after 5 days, Chinese cabbage leaf disks; for mortality at 100 g/ha: application rate 100 g/ha, read-out: activity (mortality). The protocol: Myzus persicae—Spray Test
To produce a suitable preparation of active compound, 1 part by weight of active compound is mixed with the stated amount of solvents and is diluted with water, containing an emulsifier concentration of 1000 ppm, to the desired concentration. Further test concentrations are prepared by dilution with emulsifier containing water.
Chinese cabbage (Brassica pekinensis) leaf disks infected with all instars of the green peach aphid (Myzus persicae), are sprayed with a preparation of the active ingredient of the desired concentration.
After 5 days mortality in % is determined. 100% means all aphids have been killed and 0% means none of the aphids have been killed.

Experiment [8] concerns Rhipicephalus (Boophilus) microplus larvae (strain Parkhurst, resistant against synthetic pyrethroids). Description: Rhipicephalus (Boophilus) microplus in-vitro contact test, larval cattle tick. Conditions: after 48 hours, read-out: activity (efficacy: larvae dead or moribund); for pest or weed control at 1 µg/cm2, 100 g/ha: application rate 1 μg/cm^2 (=100 g/ha); for pest or weed control at 5 µg/cm2, 500 g/ha: application rate 5 μg/cm^2 (=500 g/ha). The procedure, abridged:
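Acetone solutions were coated onto glass tube walls, giving 5 μg/cm^2 at 900 ppm. Once dry, 20–50 pyrethroid-resistant Parkhurst larvae were added per tube and held 48 h at 27 °C and 85% RH. Efficacy was scored by negative geotaxis as the percentage of dead or moribund larvae.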

The test system of experiment [9] is adult engorged female ticks (Rhipicephalus microplus). Description: Rhipicephalus (Boophilus) microplus injection test. Conditions: 168 h, application rate 4 μg/tick, egg deposition after 7 days, read-out: activity (efficacy: infertile eggs). How it is done:
Rhipicephalus (Boophilus) microplus—Injection Test
Solvent: dimethyl sulfoxide
To produce a suitable preparation of active compound, 10 mg of active compound are dissolved in 0.5 mL solvent, and the concentrate is diluted with solvent to the desired concentration.
Five adult engorged female ticks (Rhipicephalus microplus) are injected with 1 μL compound solution into the abdomen. The ticks are transferred into replica plates and incubated in a climate chamber.
After 7 days egg deposition of fertile eggs is monitored. Eggs where fertility is not visible are stored in a climate chamber till hatching after about 42 days. An efficacy of 100% means all eggs are infertile; 0% means all eggs are fertile.

The test system of experiment [10] is adult mosquitoes Aedes aegypti strain MONHEIM. Description: Aedes aegypti test (AEDSAE surface treatment & contact assay). Conditions: surface concentration 20 mg/m^2, exposure 30 minutes, 24 hours after contact, read-out: efficacy (mortality). How it is done:
Aedes aegypti Test (AEDSAE Surface Treatment & Contact Assay)
Solvent: Aceton+2000 ppm rapeseed oil methyl ester (RME)
In order to produce a sufficient, active ingredient containing solution it is necessary to solve the test compound in the solvent-mix (acetone at 2 mg/ml/RME 2000 ppm). This solution is pipetted onto a glazed tile and after evaporation of the acetone, adult mosquitoes of the species Aedes aegypti strain MONHEIM are placed onto the dried surface. The exposure time is 30 minutes.
Mortality in percent (%) is determined 24 hours after contact of the insects to the treated surface. 100% mortality means that all tested insects are dead, whereas 0% means that no insect died.

Broadly, the mortality is the share of the test organisms that died.

Take `C[C@H](NC(=O)c1cc(C(F)(F)F)cc(C(F)(F)F)c1)c1ncnn1-c1ccc(C(=O)N2CCOC(C)(C)C2)cn1` [Example I-14, N-[(1S)-1-(1-{5-[(2,2-dimethylmorpholin-4-yl)carbonyl]pyridin-2-yl}-1H-1,2,4-triazol-5-yl)ethyl]-3,5-bis(trifluoromethyl)benzamide]: the mortality at 100 g/ha in experiment [1] was determined as 100%; in [2], 83%; in [7], 90%. In addition, the pest or weed control at 32 µg/disc, 100 g/ha in [3] was 100%. Besides, the pest or weed control at 5 µg/cm2, 500 g/ha in experiment [4] and in [8] was 100% in each case. For the same compound, the pest or weed control at 5 µg/cm2 in [5] worked out at 100%. Further, the mortality at 4 ppm in experiment [6] stood at 100%. In experiment [8], the pest or weed control at 1 µg/cm2, 100 g/ha is 100%. Besides, the pest or weed control at 0.004 mg in [9] is 100%.
For `CON(C)C(=O)c1ccc(-n2ncnc2[C@H](C)NC(=O)c2cc(C(F)(F)F)cc(C(F)(F)F)c2)nc1` [Example I-48], the mortality at 20 mg/m2 in experiment [10] was 80 to 100%. The same compound had a mortality at 100 g/ha in experiment [2] of 100%. The pest or weed control at 32 µg/disc, 100 g/ha in experiment [3] was determined as 100%. Also, the mortality at 4 ppm in experiment [6] was 100%. Besides, in experiment [8], the pest or weed control at 1 µg/cm2, 100 g/ha came to 100% and the pest or weed control at 5 µg/cm2, 500 g/ha came out at 100%.
Take `CON(C)C(=O)c1ccc(-n2nc(C)nc2[C@H](C)NC(=O)c2cc(C(F)(F)F)cc(C(F)(F)F)c2)nc1` [Example I-49]: the mortality at 20 mg/m2 in experiment [10] is 80 to 100%. For the same compound, the mortality at 100 g/ha in [2] came to 100%; in experiment [7], 90%. Further, the pest or weed control at 32 µg/disc, 100 g/ha in [3] was determined as 100%. Besides, in experiment [6], the mortality at 4 ppm stood at 100%. The pest or weed control at 1 µg/cm2, 100 g/ha in experiment [8] is 100%. In experiment [8], the pest or weed control at 5 µg/cm2, 500 g/ha amounted to 100%.
Consider `C[C@H](NC(=O)c1cc(C(F)(F)F)cc(C(F)(F)F)c1)c1ncnn1-c1ccc(C(=O)NC2CS(=O)(=O)C2)cn1` [Example I-63], for which the mortality at 20 mg/m2 in experiment [10] lay in the range of 80 to 100%. The pest or weed control at 32 µg/disc, 100 g/ha in [3] amounted to 100%. Moreover, in [5], the pest or weed control at 5 µg/cm2 amounted to 100%. In experiment [6], the mortality at 4 ppm worked out at 100%. In experiment [7], the mortality at 100 g/ha is 90%. The mortality at 500 g/ha in experiment [7] (application rate 500 g/ha) is 90%. In [8], the pest or weed control at 1 µg/cm2, 100 g/ha worked out at 90% and the pest or weed control at 5 µg/cm2, 500 g/ha was determined as 90%.
Turning to `Cc1nc([C@H](C)NC(=O)c2cc(C(F)(F)F)cc(C(F)(F)F)c2)n(-c2ccc(C(=O)N3CCOC[C@@H]3C)cn2)n1` [Example I-68], the mortality at 20 mg/m2 in [10] fell in the range of 80 to 100%. Further, in experiment [2], the mortality at 100 g/ha came to 100%. In addition, the pest or weed control at 32 µg/disc, 100 g/ha in [3] worked out at 100%. The pest or weed control at 5 µg/cm2 in experiment [5] came out at 100%. In experiment [8], the pest or weed control at 1 µg/cm2, 100 g/ha came to 100% and the pest or weed control at 5 µg/cm2, 500 g/ha was 100%.
Compound `C[C@H](NC(=O)c1cc(C(F)(F)F)cc(C(F)(F)F)c1)c1ncnn1-c1ccc(C(=O)N2CCOCC2c2ncno2)cn1` (some centres unmarked) [Example I-98] had a mortality at 100 g/ha in experiment [1] of 90%. The pest or weed control at 32 µg/disc, 100 g/ha in experiment [3] is 100%. The pest or weed control at 5 µg/cm2, 500 g/ha in experiment [4] and in [8] was 100% each time. Also, the pest or weed control at 5 µg/cm2 in experiment [5] came to 90%. In experiment [6], the mortality at 4 ppm is 100%. In addition, the pest or weed control at 1 µg/cm2, 100 g/ha in [8] amounted to 100%.
In experiment [1], `C[C@H](NC(=O)c1cc(Cl)cc(S(C)(=O)=O)c1)c1ncnn1-c1ccc(C(=O)N2CCSCC2)cn1` [Example I-120] gave a mortality at 100 g/ha of 90%. The pest or weed control at 32 µg/disc, 100 g/ha in [3] was 80%. The mortality at 4 ppm in [6] was 100%.
With `C[C@@H]1CN(C(=O)c2ccc(-n3ncnc3[C@H](C)NC(=O)c3cc(Cl)cc(S(C)(=O)=O)c3)nc2)C[C@@H](C)O1` [Example I-121], in [1], the mortality at 100 g/ha amounted to 90% and the mortality at 500 g/ha amounted to 100%. Besides, the mortality at 4 ppm in experiment [6] was 100%.
Take `CCc1nc([C@H](C)NC(=O)c2cc(Br)cc(OC(F)(F)F)c2)n(-c2ccc(C(=O)N3C[C@@H](C)O[C@@H](C)C3)cn2)n1` [Example I-135]: in experiment [1], the mortality at 500 g/ha is 100%. In experiment [2], this compound showed a mortality at 100 g/ha of 100%. For the same compound, the pest or weed control at 32 µg/disc, 100 g/ha in experiment [3] was 100%. Further, the pest or weed control at 5 µg/cm2, 500 g/ha in experiment [4] worked out at 100%. In addition, the pest or weed control at 5 µg/cm2 in [5] came out at 100%. In addition, in [8], the pest or weed control at 1 µg/cm2, 100 g/ha turned out to be 100% and the pest or weed control at 5 µg/cm2, 500 g/ha came to 100%.
Regarding `C[C@@H]1CN(C(=O)c2cnc(-n3ncnc3[C@H](C)NC(=O)c3cc(OC(F)(F)F)cc(C4CC4)c3)cn2)C[C@H](C)O1` [Example I-141], the mortality at 100 g/ha in experiment [1] was found to be 90%; in experiment [2], 100%; in experiment [7], 90%. Moreover, the mortality at 500 g/ha in experiment [1] came to 100%.
As for `C[C@@H]1CN(C(=O)c2cnc(-n3ncnc3[C@H](C)NC(=O)c3cc(C(F)(F)F)cc(C(F)(F)F)c3)cn2)C[C@H](C)O1` [Example I-143], in [1], the mortality at 500 g/ha turned out to be 100%. Also, the mortality at 100 g/ha worked out at 100% in experiment [2] and 90% in experiment [7]. For the same compound, the pest or weed control at 32 µg/disc, 100 g/ha in experiment [3] turned out to be 100%.

The values are drawn from patent US20230058623A1, “NOVEL HETEROARYL-TRIAZOLE COMPOUNDS AS PESTICIDES” (Bayer Aktiengesellschaft, priority 2019, published 2023).
